The values that follow come from patent US20240401144A2, “PRIMER-PROBE COMPOSITION, KIT, AND DETECTION METHOD” (ASCENTAWITS PHARMACEUTICALS, LTD., priority 2021, published 2024).

The subject of assay [1] is C3A hepatocellular carcinoma cell line. Put plainly: Ex vivo proliferation assay, 96 h exposure. Type of assay: cell-based. To be noted: Homo sapiens, 96 h of exposure, AKR1C3 protein High, read-out: 3424 IC50. Here is the method:
(§1) Exponentially growing cells were inoculated. After 24 h, the test compound OBI-3424 was added. After addition of the test compound OBI-3424, plates were incubated in a standard tissue incubator at 37° C. for the indicated hours. At the end of the experiment, viable cells were detected using the CellTiter Glo (CTG) assay kit or AlamarBlue. Drug concentrations (IC50) resulting in 50% growth inhibition relative to untreated control were calculated using XLfit (IDBS, Boston, MA) or Prism 6 (GraphPad, San Diego, CA).
(§2) After exposing the hepatocellular carcinoma cell lines to compound OBI-3424 for 96 h and exposing the NSCLC cell lines to compound OBI-3424 for 72 h, the IC50 value was determined by ex vivo proliferation assay, and the expression of AKR1C3 protein in hepatocellular carcinoma cell lines was determined by Western blotting (tubulin was used as loading control). The expression data of AKR1C3 RNA in the hepatocellular carcinoma cell lines and in the NSCLC cell lines were from CrownBio database (https://db.crownbio.com/Crownbio/OncoExpress_Login.aspx).

Assay [2] concerns HLE hepatocellular carcinoma cell line. The experiment in a line: Ex vivo proliferation assay, 96 h exposure. The settings on record: Homo sapiens, 96 h of exposure, AKR1C3 protein High, read-out: 3424 IC50. Type of assay: cell-based. As to the method:
as §1, §2

Assay [3] deals with HLF hepatocellular carcinoma cell line. Put plainly: Ex vivo proliferation assay, 96 h exposure. The settings on record: Homo sapiens, 96 h of exposure, AKR1C3 protein Low, read-out: 3424 IC50. Format: cell-based. Here is the method: as §1, §2
In assay [4] the test system is SK-HEP-1 hepatocellular carcinoma cell line. The experiment in a line: Ex vivo proliferation assay, 96 h exposure. Type of assay: cell-based. The settings on record: Homo sapiens, SK-HEP1; SK-HEP-1, 96 h of exposure; AKR1C3 protein Low; read-out: 3424 IC50. As to the method: as §1, §2
Assay [5] has as its system SNU-182 hepatocellular carcinoma cell line. Put plainly: Ex vivo proliferation assay, 96 h exposure. Type of assay: cell-based. To be noted: Homo sapiens; SNU-182, 96 h of exposure; AKR1C3 protein Low; read-out: 3424 IC50. As to the method:
as §1, §2

For assay [6], the system named is SNU-398 hepatocellular carcinoma cell line. The experiment in a line: Ex vivo proliferation assay, 96 h exposure. Format: cell-based. The settings on record: Homo sapiens; SNU-398, 96 h of exposure; AKR1C3 protein Low; read-out: 3424 IC50. Here is the method:
as §1, §2

The test system of assay [7] is SNU-449 hepatocellular carcinoma cell line. Put plainly: Ex vivo proliferation assay, 96 h exposure. Format: cell-based. To be noted: Homo sapiens; SNU-449, 96 h of exposure; AKR1C3 protein High; read-out: 3424 IC50. As to the method: as §1, §2
The subject of assay [8] is SNU-475 hepatocellular carcinoma cell line. The experiment in a line: Ex vivo proliferation assay, 96 h exposure. To be noted: Homo sapiens; SNU-475, 96 h of exposure; AKR1C3 protein High; read-out: 3424 IC50. Format: cell-based. Here is the method:
as §1, §2

Assay [9] has as its system CCRF-CEM hematological cancer cell line. Put plainly: Ex vivo proliferation assay, hematological cancer cell lines, 72 h. Format: cell-based. To be noted: Homo sapiens; Table 6: CCRF-CEM, 72 h of exposure. As to the method:
as §1
(§3) After exposing the hematological cancer cell lines to compound OBI-3424 for 72 h, the IC50 value was determined by ex vivo proliferation assay. The expression data of AKR1C3 RNA in hematological cancer cell lines was from CrownBio database (https://db.crownbio.com/Crownbio/OncoExpress_Login.aspx).

Assay [10] has as its system HEL hematological cancer cell line. Described as above. Format: cell-based. To be noted: Homo sapiens; Table 6: HEL, 72 h of exposure. As to the method:
as §1, §3

Assay [11] has as its system Jurkat hematological cancer cell line. Described as above. Type of assay: cell-based. The settings on record: Homo sapiens; Table 6: Jurkat, 72 h of exposure. As to the method: as §1, §3
Assay [12] concerns KG-1 hematological cancer cell line. Described as above. Format: cell-based. To be noted: Homo sapiens; Table 6: KG-1, 72 h of exposure. Here is the method: as §1, §3
Assay [13] deals with Kasumi-1 hematological cancer cell line. The assay is described as above. Format: cell-based. The settings on record: Homo sapiens; Table 6: Kasumi-1, 72 h of exposure. As to the method:
as §1, §3

In assay [14] the test system is P31/FUJ hematological cancer cell line. Described as above. Type of assay: cell-based. The settings on record: Homo sapiens; Table 6: P31/FUJ, 72 h of exposure. Here is the method: as §1, §3
Assay [15] concerns PF-382 hematological cancer cell line. Described as above. Format: cell-based. The settings on record: Homo sapiens; Table 6: PF-382, 72 h of exposure. Here is the method: as §1, §3
In assay [16] the test system is SUP-T1 hematological cancer cell line. The assay is described as above. Format: cell-based. The settings on record: Homo sapiens; Table 6: SUP-T1, 72 h of exposure. As to the method: as §1, §3
The subject of assay [17] is TALL-1 hematological cancer cell line. The assay is described as above. Type of assay: cell-based. The settings on record: Homo sapiens; Table 6: TALL-1, 72 h of exposure. As to the method: as §1, §3
For assay [18], the system named is TF-1 hematological cancer cell line. The description is as above. Format: cell-based. The settings on record: Homo sapiens; Table 6: TF-1, 72 h of exposure. As to the method: as §1, §3
Assay [19] relates to THP-1 hematological cancer cell line. The assay is described as above. Type of assay: cell-based. To be noted: Homo sapiens; Table 6: THP-1, 72 h of exposure. As to the method: as §1, §3
For assay [20], the system named is ALL cell lines. Put plainly: Ex vivo cytotoxicity in ALL cell lines (summary). Type of assay: cell-based. The settings on record: Homo sapiens. As to the method:
(§4) Leukemia cell lines were suspended in RPMI medium supplemented with FBS (Biosera), while ALL PDX cells were cultured in QBSF medium (Quality Biological Inc.,) supplemented with Flt-3 ligand (20 ng/ml, BioNovus Life Sciences) or IL7 (10-20 ng/ml, Jomar Life Research). Cells were inoculated according to the optimal cell density and incubated for 3h or overnight (37° C., 5% CO2). PDX cells and leukemia cell lines were treated with OBI-3424 ([…]) or medium control for 48 or 72 h, respectively. Viability was determined using Alamar Blue reduction assay or Cell Titer-Glo Luminescent Cell Viability Assay (Promega). The half-maximal inhibitory concentration (IC50) was used to calculate the interpolation of nonlinear regression curves by GraphPad Prism 7 software.
The expression levels of AKR1C3 protein was determined by Western blot analysis. The ex vivo cytotoxicity of OBI-3424 was determined using CellTiter-Glo assay and calculated as 50% maximum inhibitory concentration (IC50).

Assay [21] deals with cell lines derived from T-ALL with high AKR1C3 expression. Put plainly: Ex vivo cytotoxicity in leukemia cell lines (summary). Type of assay: cell-based, human. As to the method: as §4
In order to evaluate the potential anti-leukemia activity of OBI-3424, ex vivo cytotoxicity assays were performed on a variety of leukemia cell lines. […] The difference in IC50 values between cell lines with high/medium AKR1C3 expression and low expression was statistically significant (P=0.0016).

Turning to `C[C@H](OP(=O)(N1CC1)N1CC1)c1ccc([N+](=O)[O-])c(Oc2cccc(C(=O)N(C)C)c2)c1` [OBI-3424], the concentration for half-maximal inhibition (IC50) in assay [1] was 5 nM; in assay [2] it was 113 nM; in assay [3], above 1000 nM; in assay [4], above 1000 nM; in [5], above 1000 nM; in [6], above 1000 nM. The IC50 in [7] turned out to be 45 nM; in assay [8], 15 nM; in assay [9] it was 1.7 nM; in assay [10] it was 224 nM; in assay [11] it was 51.1 nM; in [12], 153 nM. Further, the IC50 in [13] was at least 1000 nM; in assay [14] it was at least 1000 nM; in assay [15], 6 nM; in assay [16] it was 3.9 nM; in assay [17], 24 nM; in assay [18], 16.8 nM. For the same molecule, the concentration for half-maximal inhibition (IC50) in assay [19] is at least 1000 nM; in assay [20] (6 types of cell lines expressing high (strong) levels of AKR1C3) it was 3 to 30 nM; in [20] (cell lines with medium AKR1C3 expression levels), 3 to 84 nM. The IC50 values result in assay [21] is “low nmol/L range”.
